# Several values for one entry are separate records, joined by “and”; a condition that tells them apart may be missing. Identical values can stand only once.
# Tested on: CD2F1 mice, P1798 lymphosarcoma sc, tumor weight T/C
# Test: NCI In Vivo Anticancer Drug Screen. Data for tumor model P1798 Lymphosarcoma (subcutaneous) in CD2F1 (CDF1) mice
# Conditions: endpoint: mean tumor weight, higher = larger tumour
# Protocol: The antitumor activity of compounds was measured in mice bearing transplantable tumors. Survival or tumor size were measured and the results are expressed as the measurement made in the treated group (T) divided by the measurement made in the vehicle treated control group (C). The tumor model used in this assay is P1798 Lymphosarcoma (subcutaneous) in CD2F1 (CDF1) mice
# [1] = dose: 125.0 mg/kg/injection, schedule: Q01DX010 (ip), vehicle: saline
# [2] = dose: 250.0 mg/kg/injection, schedule: Q01DX010 (ip), vehicle: saline
# [3] = dose: 500.0 mg/kg/injection, schedule: Q01DX010 (ip), vehicle: saline
# [4] = dose: 10.0 mg/kg/injection, schedule: Q01DX010 (ip), vehicle: saline
smiles,measurement,setting,value
CC(=O)OCC(=O)[C@@]1(O)CC[C@H]2[C@@H]3CCC4=CC(=O)[C@H](C)C[C@]4(C)[C@H]3[C@@H](O)C[C@@]21C,T/C,"dose: 0.78 mg/kg/injection, schedule: Q01DX Z (sc), vehicle: steriod suspending solution",111 % of control
same,T/C,"dose: 1.56 mg/kg/injection, schedule: Q01DX Z (sc), vehicle: steriod suspending solution",101 % of control
same,T/C,"dose: 3.13 mg/kg/injection, schedule: Q01DX Z (sc), vehicle: steriod suspending solution",108 % of control
same,T/C,"dose: 6.25 mg/kg/injection, schedule: Q01DX Z (sc), vehicle: steriod suspending solution",101 % of control and 88 % of control
same,T/C,"dose: 12.5 mg/kg/injection, schedule: Q01DX005 (sc), vehicle: steriod suspending solution",61 % of control
same,T/C,"dose: 12.5 mg/kg/injection, schedule: Q01DX010 (sc), vehicle: steriod suspending solution",33 % of control and 50 % of control
same,T/C,"dose: 12.5 mg/kg/injection, schedule: Q01DX Z (sc), vehicle: steriod suspending solution",96 % of control
same,T/C,"dose: 25.0 mg/kg/injection, schedule: Q01DX005 (sc), vehicle: steriod suspending solution",27 % of control
same,T/C,"dose: 25.0 mg/kg/injection, schedule: Q01DX Z (sc), vehicle: steriod suspending solution",73 % of control
same,T/C,"dose: 25.0 mg/kg/injection, schedule: Q02DX010 (sc), vehicle: steriod suspending solution",96 % of control
same,T/C,"dose: 25.0 mg/kg/injection, schedule: Q03DX004 (sc), vehicle: steriod suspending solution",65 % of control
same,T/C,"dose: 50.0 mg/kg/injection, schedule: Q01DX005 (sc), vehicle: steriod suspending solution",9 % of control
same,T/C,"dose: 50.0 mg/kg/injection, schedule: Q01DX Z (sc), vehicle: steriod suspending solution",76 % of control
same,T/C,"dose: 50.0 mg/kg/injection, schedule: Q02DX010 (sc), vehicle: steriod suspending solution",100 % of control
same,T/C,"dose: 50.0 mg/kg/injection, schedule: Q03DX004 (sc), vehicle: steriod suspending solution",17 % of control
same,T/C,"dose: 100.0 mg/kg/injection, schedule: Q01DX005 (sc), vehicle: steriod suspending solution",4 % of control
same,T/C,"dose: 100.0 mg/kg/injection, schedule: Q02DX010 (sc), vehicle: steriod suspending solution",108 % of control
same,T/C,"dose: 100.0 mg/kg/injection, schedule: Q03DX004 (sc), vehicle: steriod suspending solution",2 % of control
CCCNc1ncnc2c1cnn2C,T/C,"dose: 3.13 mg/kg/injection, schedule: Q01DX010 (ip), vehicle: saline",90 % of control
same,T/C,"dose: 6.25 mg/kg/injection, schedule: Q01DX010 (ip), vehicle: saline",103 % of control
same,T/C,"dose: 12.5 mg/kg/injection, schedule: Q01DX010 (ip), vehicle: saline",86 % of control
CCOC(N)=O,T/C,[1],95 % of control
same,T/C,[2],64 % of control
same,T/C,[3],23 % of control
Cc1cn(C2OC(CO)C(O)C2O)c(=O)[nH]c1=O (stereo not given),T/C,"dose: 62.5 mg/kg/injection, schedule: Q01DX010 (ip), vehicle: saline",97 % of control
same,T/C,"dose: 100.0 mg/kg/injection, schedule: Q01DX010 (ip), vehicle: saline",67 % of control
same,T/C,[1],96 % of control
same,T/C,"dose: 200.0 mg/kg/injection, schedule: Q01DX010 (ip), vehicle: saline",80 % of control
same,T/C,[2],72 % of control
same,T/C,"dose: 400.0 mg/kg/injection, schedule: Q01DX010 (ip), vehicle: saline",85 % of control
same,T/C,[3],69 % of control
same,T/C,"dose: 800.0 mg/kg/injection, schedule: Q01DX010 (ip), vehicle: saline",75 % of control
c1ccc(CNc2ncnc3[nH]ncc23)cc1,T/C,"dose: 16.0 mg/kg/injection, schedule: Q01DX010 (ip), vehicle: saline",98 % of control
same,T/C,"dose: 32.0 mg/kg/injection, schedule: Q01DX010 (ip), vehicle: saline",83 % of control
same,T/C,"dose: 64.0 mg/kg/injection, schedule: Q01DX010 (ip), vehicle: saline",70 % of control
OCC1OC(n2cnc3c(=S)nc[nH]c32)C(O)C1O (stereo not given),T/C,[4],65 % of control
same,T/C,"dose: 20.0 mg/kg/injection, schedule: Q01DX010 (ip), vehicle: saline",54 % of control and 57 % of control
same,T/C,"dose: 40.0 mg/kg/injection, schedule: Q01DX010 (ip), vehicle: saline",57 % of control and 61 % of control
same,T/C,"dose: 80.0 mg/kg/injection, schedule: Q01DX010 (ip), vehicle: saline",40 % of control and 60 % of control
same,T/C,"dose: 160.0 mg/kg/injection, schedule: Q01DX010 (ip), vehicle: saline",61 % of control
CCOC(=O)NP(=O)(N1CC1)N1CC1,T/C,"dose: 5.0 mg/kg/injection, schedule: Q01DX010 (ip), vehicle: saline",64 % of control
same,T/C,[4],55 % of control
CC(C)(O)/C=C/C(=O)[C@](C)(O)[C@H]1[C@H](O)C[C@@]2(C)[C@@H]3CC=C4[C@@H](C[C@H](O)C(=O)C4(C)C)[C@]3(C)C(=O)C[C@]12C,T/C,"dose: 0.2 mg/kg/injection, schedule: Q01DX009 (ip), vehicle: saline",91 % of control
same,T/C,"dose: 0.4 mg/kg/injection, schedule: Q01DX009 (ip), vehicle: saline",81 % of control
same,T/C,"dose: 0.8 mg/kg/injection, schedule: Q01DX009 (ip), vehicle: saline",95 % of control
